US8431593B2, “Heteroaryl amide derivatives” (H. Lundbeck A/S, priority 2006, dated 2013)
Where two headings read alike, the source gives them in different places. Blank lines part the entries; values can stand above or below the molecule they belong to.

Target: T1, P2X7 receptor (Homo sapiens, UniProt Q99572)
T1 construct: host or cells: SH-SY5Y
T1 sequence (Q99572 1-595): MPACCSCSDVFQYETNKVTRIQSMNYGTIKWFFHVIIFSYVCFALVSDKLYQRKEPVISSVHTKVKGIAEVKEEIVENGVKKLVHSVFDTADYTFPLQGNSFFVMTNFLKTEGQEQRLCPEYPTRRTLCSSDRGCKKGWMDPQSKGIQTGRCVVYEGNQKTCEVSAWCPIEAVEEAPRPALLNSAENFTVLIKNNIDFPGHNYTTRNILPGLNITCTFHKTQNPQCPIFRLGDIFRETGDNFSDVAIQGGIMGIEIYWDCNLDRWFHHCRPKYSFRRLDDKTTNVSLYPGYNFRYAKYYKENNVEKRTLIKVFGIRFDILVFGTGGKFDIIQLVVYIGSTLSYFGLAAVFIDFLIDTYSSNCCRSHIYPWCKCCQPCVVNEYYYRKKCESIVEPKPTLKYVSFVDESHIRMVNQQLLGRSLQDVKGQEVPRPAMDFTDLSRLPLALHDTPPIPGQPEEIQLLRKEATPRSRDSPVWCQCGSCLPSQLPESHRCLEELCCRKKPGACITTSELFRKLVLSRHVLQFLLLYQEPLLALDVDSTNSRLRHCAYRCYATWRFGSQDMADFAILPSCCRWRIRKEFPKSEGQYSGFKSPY
Test: P2X7 calcium mobilization assay, high throughput, antagonist activity (Example 4A)
Assay type: cell-based
Details: read-out: IC50
Summary of the method: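 FLIPR^TETRA calcium read-out: maximum RFU per well minus average no-agonist control, with agonist wells giving the average positive maximum. Cells seeded at 100,000/well one day ahead, dye-loaded 1 h, rinsed, then exposed to compound for 1 h at room temperature.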

[1] = fluorescence response of cells exposed to 80 μM 2′(3′)-O-(4-benzoyl-benzoyl)adenosine 5′-triphosphate, Example 4A
[2] = SH-SY5Y cells, 50% decrease in fluorescence response to 80 μM BzATP
[3] = 50% decrease in the fluorescence response of cells exposed to 80 μM of 2′(3′)-O-(4-benzoyl-benzoyl)adenosine 5′-triphosphate, Example 4A
[4] = 50% decrease in the fluorescence response of cells exposed to 80 μM of 2′(3′)-O-(4-benzoyl-benzoyl)adenosine 5′-triphosphate, determined as in Example 4A
[5] = 50% decrease in the fluorescence response of cells exposed to 80 μM 2′(3′)-O-(4-benzoyl-benzoyl)adenosine 5′-triphosphate, Example 4A

- IC50 [1]: < 2 µM
Compound: CN(CC1OCCO1)C(=O)c1cn2c(NC(=O)CC34CC5CC(CC(C5)C3)C4)cccc2n1 [Compound 368, 5-[(adamantan-l-ylacetyl)amino]-N-(1,3-dioxolan-2-ylmethyl)-N-methylimidazo[1,2-a]pyridine-2-carboxamide]

- IC50 [2]: < 2 µM
Compound: Nc1ccnn1Cc1cn2c(C(=O)NCC34CC5CC(CC(C5)C3)C4)cccc2n1 [Compound 209, N-(adamantan-1-ylmethyl)-2-[(5-amino-1H-pyrazol-1-yl)methyl]imidazo[1,2-a]pyridine-5-carboxamide]

- IC50 [3]: < 2 µM
Compound: O=C(NCC12CC3CC(CC(C3)C1)C2)c1cccc2nc(Cn3cnnn3)cn12 [Compound 727, N-(adamantan-1-ylmethyl)-2-(1H-tetrazol-1-ylmethyl) imidazo[1,2-a]pyridine-5-carboxamide]

- IC50 [4]: < 2 µM
Compound: CCOC(=O)C(Cc1ccc(Cl)cc1)c1cn2c(C(=O)NCC(CC(C)C)c3ccc(Cl)cc3)cccc2n1 (centres unmarked) [Compound 932, ethyl 3-(4-chlorophenyl)-2-(5-{[2-(4-chlorophenyl)-4-methylpentyl]carbamoyl}imidazo [1,2-a]pyridin-2-yl)propanoate]

- IC50 [5]: < 2 µM
Compound: CC1(C)[C@@H]2CC[C@@H](CNC(=O)c3cccc4nc(CC(=O)N5CCC[C@@H]5CN)cn34)[C@H]1C2 [Compound 584, 2-{2-[(2R)-2-(aminomethyl)pyrrolidin-1-yl]-2-oxoethyl}-N-{[(1R,2R,5R)-6,6-dimethylbicyclo [3.1.1]hept-2-yl]methyl}imidazo [1,2-a]pyridine-5-carboxamide]

- IC50 [4]: < 2 µM
Compound: CC(O)CNC(=O)Cc1cn2c(C(=O)NCC3(c4ccc(C(F)(F)F)cc4)CCCCC3)cccc2n1 (centres unmarked) [Compound 864, 2-{2-[(2-hydroxypropyl)amino]-2-oxoethyl}-N-({1-[4-(trifluoromethyl)phenyl]cyclohexyl}methyl) imidazo[1,2-a] pyridine-5-carboxamide]

- IC50 [2]: < 2 µM
Compound: CCOC(=O)Cc1cn2c(C(=O)NCC(CC(C)C)c3ccccc3)cccc2n1 (centres unmarked) [Compound 139, ethyl {5-[(4-methyl-2-phenylpentyl)car-bamoyl]imidazo[1,2-a]pyridin-2-yl}acetate]

- IC50 [2]: < 2 µM
Compound: COCC1CCCCN1C(=O)Cc1cn2c(C(=O)NCC34CC5CC(CC(C5)C3)C4)cccc2n1 (centres unmarked) [Compound 177, N-(adamantan-1-ylmethyl)-2-{2-[2-(methoxymethyl)piperidin-1-yl]-2-oxoethyl}imidazo[1,2-a]pyridine-5-carboxamide]

- IC50 [3]: < 2 µM
Compound: CC(C)c1ccc(CN(C)C(=O)c2cn3c(C(=O)NCC45CC6CC(CC(C6)C4)C5)cccc3n2)nc1 [Compound 716, 5-N-(adamantan-1-ylmethyl)-2-N-[(5-isopropylpyridin-2-yl)methyl]-2-N-methylimidazo[1,2-a]pyridine-2,5-dicarboxamide]

- IC50 [3]: < 2 µM
Compound: CN(C)CCCN(C)C(=O)c1cn2c(C(=O)NCC34CC5CC(CC(C5)C3)C4)cccc2n1 [Compound 670, 5-N-(adamantan-1-ylmethyl)-2-N-[3-(dimethylamino)propyl]-2-N-methylimidazo[1,2-a]pyridine-2,5-dicarboxamide]

- IC50 [4]: < 2 µM
Compound: CCCC(C(=O)O)c1cn2c(C(=O)NCC34CC5CC(CC(C5)C3)C4)cccc2n1 (centres unmarked) [Compound 909, 2-{5-[(adamantan-1-ylmethyl)carbamoyl]imidazo[1,2-a]pyridin-2-yl}pentanoic acid]

- IC50 [2]: < 2 µM
Compound: O=C(NCC12CC3CC(CC(C3)C1)C2)c1cccc2nc(CC(=O)N3C[C@@H]4C[C@H]3CN4)cn12 [Compound 192, N-(adamantan-1-ylmethyl)-2-{2-[(1S,4S)-2,5-diazabicyclo[2.2.1]hept-2-yl]-2-oxoethyl}imidazo[1,2-a]pyridine-5-carboxamide]

- IC50 [2]: < 2 µM
Compound: O=C(NCC12CC3CC(CC(C3)C1)C2)c1cccc2nc(CC(=O)N3CC(O)C3)cn12 [Compound 55, N-(adamantan-1-ylmethyl)-2-[2-(3-hydroxyazetidin-1-yl)-2-oxoethyl]imidazo[1,2-a]pyridine-5-carboxamide]

- IC50 [4]: < 2 µM
Compound: CC1=NCCN1Cc1cn2c(C(=O)NCC(CC(C)C)c3ccc(Cl)cc3)cccc2n1 (centres unmarked) [Compound 923, N-[2-(4-chlorophenyl)-4-methylpentyl]-2-[(2-methyl-4,5-dihydro-1H-imidazol-1-yl)methyl]imidazo[1,2-a]pyridine-5-carboxamide]

- IC50 [3]: < 2 µM
Compound: CC(Cc1cn2c(C(=O)NCC34CC5CC(CC(C5)C3)C4)cccc2n1)C(=O)O (centres unmarked) [Compound 693, 3-{5-[(adamantan-1-ylmethyl)carbamoyl]imidazo[1,2-a]pyridin-2-yl}-2-methylpropanoic acid]

- IC50 [2]: < 2 µM
Compound: COCCC1CCN(C(=O)Cc2cn3c(C(=O)NCC45CC6CC(CC(C6)C4)C5)cccc3n2)CC1 [Compound 35, N-(adamantan-1-ylmethyl)-2-{2-[4-(2-methoxyethyl)piperidin-1-yl]-2-oxoethyl}imidazo[1,2-a]pyridine-5-carboxamide]

- IC50 [3]: < 2 µM
Compound: NCC1CCCCN1C(=O)c1cn2c(C(=O)NCC34CC5CC(CC(C5)C3)C4)cccc2n1 (centres unmarked) [Compound 632, N-(adamantan-1-ylmethyl)-2-{[2-(aminomethyl)piperidin-1-yl]carbonyl}imidazo[1,2-a]pyridine-5-carboxamide]

- IC50 [3]: < 2 µM
Compound: CC(C)(C)OC(=O)Nc1cn2c(C(=O)NCC34CC5CC(CC(C5)C3)C4)cccc2n1 [Compound 788, tert-butyl {5-[(adamantan-1-ylmethyl)carbamoyl]imidazo[1,2-a]pyridin-2-yl}carbamate]

- IC50 [5]: < 2 µM
Compound: CNCc1cn2c(C(=O)NCC34CC5CC(CC(C5)C3)C4)cccc2n1 [Compound 596, N-(adamantan-1-ylmethyl)-2-[(methylamino)methyl] imidazo[1,2-a] pyridine-5-carboxamide]

- IC50 [3]: < 2 µM
Compound: CC1(C)C2CC[C@H](CNC(=O)c3cccc4nc(CC(=O)NC5CCCC5)cn34)C1C2 (stereo partly drawn) [Compound 791, 2-[2-(cyclopentylamino)-2-oxoethyl]-N-{[(2S)-6,6-dimethylbicyclo [3.1.1]hept-2-yl]methyl}imidazo [1,2-a]pyridine-5-carboxamide]

- IC50 (P2X7 calcium mobilization, Example 4A, 50% decrease in the fluorescence response of cells exposed to 80 μM of (2′(3′)-O-(4-benzoyl-benzoyl)adenosine 5′-triphosephate)): < 2 µM
Compound: O=C(NCC12CC3CC(CC(C3)C1)C2)c1ccc2nc(CCl)cn2c1 [Compound 1062, N-(adamantan-1-ylmethyl)-2-(chloromethyl) imidazo [1,2-a]pyridine-6-carboxamide]

- IC50 [3]: < 2 µM
Compound: O=C(NCC12CC3CC(CC(C3)C1)C2)c1cccc2nc(C(=O)N3CCN([C@@H]4CCC[C@H]4O)CC3)cn12 [Compound 700, N-(adamantan-1-ylmethyl)-2-({4-[(1R,2R)-2-hydroxycyclopentyl]piperazin-1-yl}carbonyl)imidazo[1,2-a]pyridine-5-carboxamide]

- IC50 [4]: < 2 µM
Compound: CC(C)CCC(C(=O)O)c1cn2c(C(=O)NCC34CC5CC(CC(C5)C3)C4)cccc2n1 (centres unmarked) [Compound 912, 2-{5-[(adamantan-1-ylmethyl)carbamoyl]imidazo[1,2-a]pyridin-2-yl}-5-methylhexanoic acid]

- IC50 [1]: < 2 µM
Compound: CCN(CC)C(=O)c1cn2c(NC(=O)CC34CC5CC(CC(C5)C3)C4)cccc2n1 [Compound 365, 5-[(adamantan-1-ylacetyl)amino]-N,N-diethylimidazo[1,2-a]pyridine-2-carboxamide]

- IC50 [1]: < 2 µM
Compound: CCOC(=O)CN(CC)C(=O)c1cn2c(NC(=O)CC34CC5CC(CC(C5)C3)C4)cccc2n1 [Compound 375, ethyl N-({5-[(adamantan-1-ylacetyl)amino]imidazo [1,2-a]pyridin-2-yl}carbonyl)-N-ethylglycinate]

Compound: CC(C)N1CCN(C(=O)Cc2cn3c(C(=O)NCC4(c5ccc(Cl)cc5)CCCCC4)cccc3n2)CC1 [Compound 886, N-{[1-(4-chlorophenyl)cyclohexyl]methyl}-2-[2-(4-isopropylpiperazin-1-yl)-2-oxoethyl] imidazo[1,2-a] pyridine-5-carboxamide]
- IC50 [4]: < 2 µM

- IC50 [1]: < 2 µM
Compound: O=C(O)c1ccc(=O)n(Cc2cn3c(C(=O)NCC45CC6CC(CC(C6)C4)C5)cccc3n2)c1 [Compound 350, 1-({5-[(adamantan-1-ylmethyl)carbamoyl]imidazo[1,2-a]pyridin-2-yl}methyl)-6-oxo-1,6-dihydropyridine-3-carboxylic acid]

- IC50 [4]: < 2 µM
Compound: COc1ccc(C2(CNC(=O)c3cccc4nc(CCC(=O)O)cn34)CCCCC2)cc1 [Compound 998, 3-[5-({[1-(4-methoxyphenyl)cyclohexyl]methyl}carbamoyl)imidazo[1,2-a]pyridin-2-yl]propanoic acid]

- IC50 [2]: < 2 µM
Compound: O=C(NCC12CC3CC(CC(C3)C1)C2)c1cccc2nc(C(=O)N3CC(O)C3)cn12 [Compound 107, N-(adamantan-1-ylmethyl)-2-[(3-hydroxyazetidin-1-yl)carbonyl]imidazo[1,2-a]pyridine-5-carboxamide]
